Data: the supplement of paper PMC10307832

How the values were obtained:
Experiment in all cases: relative viability (nuclei count vs DMSO), 5 days (fraction); higher = more cells survive
[1] = compound: CC1=C(C(=NN1)C)CC2=C(C3=C(S2)N(C(=O)N(C3=O)C)CC(C)C)C(=O)N4C[C@@H](CO4)O + CC(C)C[C@H](NC(=O)[C@H](Cc1ccccc1)NC(=O)c1cnccn1)B(O)O [Bortezomib] (partner 0.002 µM)
In short: (§1)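 One day after seeding in 1536-well plates, lung cancer cell lines were dosed by pin tool. Dosing was either single-drug or a fixed anchor-drug dose plus five library-drug doses (not always all listed) in √10 steps. After 5 days, nuclei were stained in one fix-and-stain step and counted on 4× images, and relative viability is the nuclei count of treated wells over that of vehicle wells, given as the median of duplicate plates.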

[2] = compound: CC1=C(C(=NN1)C)CC2=C(C3=C(S2)N(C(=O)N(C3=O)C)CC(C)C)C(=O)N4C[C@@H](CO4)O + O=C(c1cc(Cc2n[nH]c(=O)c3ccccc23)ccc1F)N1CCN(C(=O)C2CC2)CC1 [Olaparib] (partner 8 µM)
In short: as §1

[3] = compound: CC1=C(C(=NN1)C)CC2=C(C3=C(S2)N(C(=O)N(C3=O)C)CC(C)C)C(=O)N4C[C@@H](CO4)O + CS(=O)(=O)N1CCN(Cc2cc3nc(-c4cccc5[nH]ncc45)nc(N4CCOCC4)c3s2)CC1 [Pictilisib] (partner 1 µM)
In short: as §1

IDH-C35 + Dasatinib = compound: Cc1ccccc1C(C(=O)NC1CCCCC1)N(C(=O)Cn1ccnc1C)c1cccc(F)c1 [IDH-C35] + Cc1nc(Nc2ncc(C(=O)Nc3c(C)cccc3Cl)s2)cc(N2CCN(CCO)CC2)n1 [Dasatinib] (partner 0.075 µM)
In short: as §1

| Cell Line | relative viability ([1]; first compound 0.0025 µM) | relative viability ([1]; first compound 0.007906 µM) | relative viability ([1]; first compound 0.025 µM) | relative viability ([1]; first compound 0.07906 µM) | relative viability ([1]; first compound 0.25 µM) | relative viability ([2]; first compound 0.0025 µM) | relative viability ([2]; first compound 0.007906 µM) | relative viability ([2]; first compound 0.025 µM) | relative viability ([2]; first compound 0.07906 µM) | relative viability ([2]; first compound 0.25 µM) | relative viability ([3]; first compound 0.0025 µM) | relative viability ([3]; first compound 0.007906 µM) | relative viability ([3]; first compound 0.07906 µM) | relative viability ([3]; first compound 0.25 µM) | relative viability (IDH-C35 + Dasatinib; first compound 0.08 µM) | relative viability (IDH-C35 + Dasatinib; first compound 0.253 µM) | relative viability (IDH-C35 + Dasatinib; first compound 0.8 µM) | relative viability (IDH-C35 + Dasatinib; first compound 2.53 µM) | relative viability (IDH-C35 + Dasatinib; first compound 8 µM) | relative viability ([3]; first compound 0.025 µM) |
| --- | --- | --- | --- | --- | --- | --- | --- | --- | --- | --- | --- | --- | --- | --- | --- | --- | --- | --- | --- | --- |
| NCI-H647 | 1.27 | 1.09 | 0.802 | 1.11 | 1.1 | 0.626 | 0.415 | 0.481 | 0.647 | 0.685 | 0.494 | 0.444 | 0.525 | 0.483 | 0.194 | 0.204 | 0.198 | 0.223 | 0.192 |  |
| NCI-H650 | 1.02 | 0.714 | 0.671 | 0.757 | 0.825 | 0.415 | 0.45 | 0.345 | 0.41 | 0.454 | 0.898 | 0.826 | 0.824 | 0.926 | 0.475 | 0.468 | 0.462 |  | 0.433 | 0.819 |
| NCI-H661 | 1 | 1.01 | 0.692 | 0.882 | 0.635 | 0.72 | 0.738 | 0.681 | 0.782 | 0.77 | 0.473 | 0.41 | 0.379 | 0.385 | 0.898 | 0.945 | 0.868 | 0.974 | 0.79 | 0.378 |
| NCI-H727 | 0.919 | 0.583 | 0.694 | 0.716 | 0.873 | 0.813 | 0.762 | 0.747 | 0.782 | 0.568 | 0.403 | 0.483 | 0.385 | 0.517 | 0.514 | 0.315 | 0.366 | 0.388 | 0.446 | 0.336 |
| NCI-H838 | 0.88 | 1.13 | 0.786 | 0.738 | 0.929 | 0.741 | 0.714 | 0.639 | 0.65 | 0.604 | 0.506 | 0.507 | 0.511 | 0.552 | 0.343 | 0.303 | 0.298 | 0.32 | 0.303 | 0.607 |
| NCI-H1355 | 1.2 | 1.28 | 1.24 | 1.15 | 1.23 | 0.889 | 0.806 | 0.783 | 0.738 | 0.724 | 0.45 | 0.562 | 0.405 | 0.5 | 0.76 | 0.727 | 0.667 | 0.651 | 0.742 | 0.528 |
| NCI-H1437 | 0.669 | 0.568 | 0.516 | 0.441 | 0.601 | 0.624 | 0.622 | 0.635 | 0.643 | 0.613 | 0.461 | 0.44 | 0.46 | 0.465 | 0.442 | 0.448 | 0.432 | 0.314 | 0.308 | 0.451 |
| NCI-H1650 | 0.218 | 0.203 | 0.234 | 0.17 | 0.189 | 0.826 | 0.823 | 0.759 | 0.79 | 0.797 | 0.575 | 0.587 | 0.67 | 0.708 | 0.328 | 0.35 | 0.328 | 0.269 | 0.304 | 0.714 |
| NCI-H1651 | 0.956 | 1.02 | 0.889 | 0.879 | 0.856 | 0.178 | 0.172 | 0.205 | 0.193 | 0.199 | 0.579 | 0.634 | 0.558 | 0.52 | 0.416 | 0.398 | 0.426 | 0.404 | 0.382 | 0.651 |
| NCI-H1666 | 0.933 | 0.874 | 0.821 | 0.778 | 0.81 | 0.751 | 0.742 | 0.766 | 0.769 | 0.725 | 0.405 | 0.399 | 0.482 | 0.406 | 0.784 | 0.807 | 0.794 | 0.795 | 0.728 | 0.53 |
| NCI-H1734 | 0.946 | 0.736 | 0.893 | 0.835 | 0.747 | 0.663 | 0.635 | 0.576 | 0.511 | 0.53 | 0.474 | 0.544 | 0.473 | 0.486 | 0.469 | 0.524 | 0.511 | 0.458 | 0.419 | 0.488 |
| NCI-H1755 | 1.01 | 0.875 | 0.962 | 0.963 | 1.13 | 0.92 | 0.897 | 0.861 | 0.85 | 0.902 | 0.445 | 0.42 | 0.479 | 0.497 | 0.374 | 0.409 | 0.433 | 0.409 | 0.465 | 0.44 |
| NCI-H1792 | 0.94 | 1.01 | 0.861 | 0.878 | 0.786 | 0.542 | 0.384 | 0.356 | 0.383 | 0.246 | 0.33 | 0.263 | 0.193 | 0.246 | 0.725 | 0.728 | 0.473 | 0.944 | 0.815 | 0.273 |
| NCI-H1915 | 0.987 | 1.03 | 0.974 | 0.827 | 1.03 | 0.259 | 0.251 | 0.266 | 0.249 | 0.255 | 0.965 | 0.927 | 0.878 | 0.975 | 0.328 | 0.308 | 0.304 | 0.326 | 0.309 | 0.897 |
| NCI-H1975 | 0.423 | 0.338 | 0.42 | 0.409 | 0.342 | 0.814 | 0.906 | 0.839 | 0.77 | 0.875 | 0.324 | 0.298 | 0.301 | 0.315 | 0.35 | 0.42 | 0.366 | 0.483 | 0.346 | 0.293 |
| NCI-H1993 | 1.19 | 1.12 | 1.09 | 1.01 | 1.15 | 0.964 | 0.957 | 0.947 | 0.844 | 0.912 | 0.866 | 0.888 | 0.728 | 0.756 | 0.654 | 0.53 | 0.577 | 0.559 | 0.621 | 0.89 |
